Patent US20050100940A1, “Novel FDRG protein and nucleic acid molecules and uses therefor” (Millennium Pharmaceuticals, Inc., priority 1998, published 2005)

What was measured:
[1] = test system: FDRG mRNA in NIH3T3 fibroblasts stably expressing PPARγ; experiment: Northern blot of FDRG mRNA in NIH3T3 fibroblasts stably expressing PPARγ; assay type: cell-based, murine
Procedure: NIH3T3 fibroblasts stably expressing PPARγ were treated with 10 μg/ml pioglitazone for 0, 2, and 4 hours.

[2] = test system: Male Zucker diabetic fatty (fa/fa) rats; experiment: Chronic troglitazone treatment of Zucker diabetic fatty rats, Northern blots of white adipose tissue; assay type: in vivo, rat; conditions: 6 mg/kg/day in food, after 4 and 20 weeks of treatment
Procedure: This experiment describes analysis of FDRG mRNA levels in rats following chronic troglitazone treatment to determine if FDRG expresion is regulated by PPARγ in vivo. Male Zucker diabetic fatty (fa/fa) rats were treated with 6 mg/kg/day (1.2% w/v) troglitazone or placebo admixed with food starting at 6 weeks of age and continuing until 26 weeks. […] Northern blots were performed on RNA isolated from white adipose tissue of treated and untreated animals, four from each group, after 4 and 20 weeks of treatment. […] This was true even when normalized to aP2, a fat cell marker. Glut4 mRNA was also found to be elevated, in agreement with published reports by other groups. Ribosomal-associated 36B4 served as a loading control.

lean or ob/ob mice = experiment: Intraperitoneal leptin administration versus pair-fed mice, FDRG expression in brown fat; assay type: in vivo, mouse; conditions: 12.5 mg/kg leptin i.p. twice daily
Procedure: In this study, 10 week old lean or ob/ob mice were divided into three groups. The first group was the control, intraperitoneally injected with 1.5 ml PBS twice daily. […] The third group, the pair-fed group, was diet restricted to match the amount of food intake by the leptin-injected group, and was also injected with PBS. The animals were sacrified at the end of one week. […] That may reflect a fundamental difference in leptin-induced dietary restriction versus externally imposed restriction, or may be consistent with a further downstream effect, e.g., leptin-mediated suppression of FDRG upregulation that would ordinarily result from reduced food intake.

CCc1ccc(CCOc2ccc(CC3SC(=O)NC3=O)cc2)nc1 (stereo not drawn) [pioglitazone]
Increase in FDRG mRNA ([1]; 10 μg/ml pioglitazone, within two hours, versus untreated cells): ≥ 10 fold

Cc1c(C)c2c(c(C)c1O)CCC(C)(COc1ccc(CC3SC(=O)NC3=O)cc1)O2 (stereo not drawn) [troglitazone]
FDRG expression in vivo, upregulation versus controls [2]: 3-5 fold

leptin: a protein secreted by fat cells, metabolic hormone
Dietary intake (lean or ob/ob mice): decrease in dietary intake | FDRG expression in brown fat (rise seen with restriction of caloric intake) (lean or ob/ob mice; one week, versus pair-fed group): this rise is not seen

C[C@@H]1C[C@@H]([C@H](O)CC2CC(=O)NC(=O)C2)C(=O)[C@@H](C)C1 [cycloheximide]
Effect on FDRG mRNA by itself ([1]; 5 μg/ml cycloheximide alone): causes a rise in FDRG mRNA | Effect of pre-treatment on pioglitazone induction of FDRG mRNA ([1]; pre-treatment with 5 μg/ml cycloheximide, then 10 μg/ml pioglitazone): does not block this induction
